Series [1] can be described thus: Plasma pharmacokinetics of BIA 10-2474 and metabolites. The series is classed as in vivo, human.
For series [2] the following is noted: cited from earlier work.
The next series deals with T1, FAAH (Homo sapiens, UniProt O00519).
T1 sequence (O00519 1-579): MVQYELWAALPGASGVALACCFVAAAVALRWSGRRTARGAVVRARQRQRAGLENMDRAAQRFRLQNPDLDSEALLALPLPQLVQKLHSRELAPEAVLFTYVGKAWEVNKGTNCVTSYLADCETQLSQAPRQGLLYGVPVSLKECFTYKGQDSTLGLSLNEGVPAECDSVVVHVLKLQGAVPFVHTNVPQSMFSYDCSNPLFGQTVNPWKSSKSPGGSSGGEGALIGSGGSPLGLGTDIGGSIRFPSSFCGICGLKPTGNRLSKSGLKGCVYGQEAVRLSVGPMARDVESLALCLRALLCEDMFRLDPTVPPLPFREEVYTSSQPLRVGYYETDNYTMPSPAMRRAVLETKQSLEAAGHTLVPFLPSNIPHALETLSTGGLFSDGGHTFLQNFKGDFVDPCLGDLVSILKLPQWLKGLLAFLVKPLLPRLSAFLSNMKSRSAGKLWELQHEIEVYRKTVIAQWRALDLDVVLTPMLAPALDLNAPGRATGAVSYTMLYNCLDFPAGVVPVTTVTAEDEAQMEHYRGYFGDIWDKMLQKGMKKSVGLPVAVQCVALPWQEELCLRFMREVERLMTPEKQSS
The settings on record: cited from earlier work.

The mark [3] stands for this setting: 20 mg BIA 10-2474 once daily, Day 10.
Where [4] appears, read: after single dose 40 mg BIA 10-2474.
The mark [5] stands for this setting: after single dose 100 mg BIA 10-2474.
Setting [6] is: repeated dose levels below 20 mg for 10 days.
Where [7] appears, read: 20 mg BIA 10-2474 once daily, Day 1.

The term half-life denotes how long it takes for the measured level to halve.

Consider `CN(C(=O)n1cnc(-c2cccnc2)c1)C1CCCCC1` [BIA 10-2445], for which, in series [1] (setting [3]), the “AUC0–t of metabolite” value is reported as 105 (64.7) ng⋅hour/mL, the Cmax of metabolite is 8.27 (3.42) ng/mL and the tmax of metabolite is recorded as 4.0 (4.0–12.0) hour. Further, in series [1] (setting [4]), the AUC0-t of metabolite is 51.3 (71.4) ng hour/mL, the Cmax of metabolite was 4.66 (44.7) ng/mL and the tmax of metabolite was 12.0 (3.0–24.0) hour. Moreover, in series [1] (setting [5]), the AUC0-t of metabolite is listed as 303 (68.3) ng hour/mL, the Cmax of metabolite is reported as 11.4 (27.1) ng/mL and the tmax of metabolite is 12.0 (3.0–24.0) hour. Besides, the “plasma abundance of metabolite” value in series [1] (setting [6]) is listed as “undetectable”. Further, the “plasma abundance of metabolite” value in series [1] (single dose levels below 40 mg) was “undetectable”.

For `O=C(NC1CCCCC1)n1cnc(-c2ccc[n+]([O-])c2)c1` [BIA 10-2583], the “plasma abundance of metabolite” value in series [1] (setting [6]) and in series [1] (single dose levels below 40 mg) was “undetectable” each time.

For the molecule `CN(C(=O)n1cnc(-c2cccnc2)c1)[C@H]1CC[C@H](O)CC1` [BIA 10-2631, N-(trans-4-hydroxycyclohexyl)-N-methyl-4-pyridin-3-yl-1H-imidazole-1-carboxamide], in series [1] (setting [3]), the “AUC0–t of metabolite” value is listed as 203 (197) ng⋅hour/mL, the Cmax of metabolite is given as 7.41 (3.9) ng/mL and the tmax of metabolite is reported as 4.0 (2.0–24.0) hour. In series [1] (setting [5]), the AUC0-t of metabolite was 359 (36.3) ng hour/mL, the Cmax of metabolite is 7.1 (30.9) ng/mL and the tmax of metabolite is on record as 18.0 (2.0–24.0) hour. Also, the “plasma abundance of metabolite” value in series [1] (setting [6]) is listed as “undetectable”. For the same molecule, the “plasma abundance of metabolite” value in series [1] (single dose levels below 40 mg) is “undetectable”.

With `CN(C(=O)n1cnc(-c2ccc[n+]([O-])c2)c1)[C@H]1CC[C@H](O)CC1` [BIA 10-2639, N-(trans-4-hydroxycyclohexyl)-N-methyl-4-(1-oxidopyridin-3-yl)l-1H-imidazole-1-carboxamide], in series [1] (setting [7]), the “AUC0–t of metabolite” value is recorded as 21.8 (6.8) ng⋅hour/mL, the “AUC0–∞ of metabolite” value is on record as 26.6 (8.5) ng⋅hour/mL, the Cmax of metabolite was 4.1 (0.5) ng/mL and the t1/2 of metabolite is recorded as 9.94 (1.79) h. For the same molecule, the tmax of metabolite in series [1] (setting [7]) is reported as 1.0 (1.0–2.0) hour. Further, in series [1] (setting [3]), the “AUC0–t of metabolite” value is listed as 47.3 (20.6) ng⋅hour/mL, the Cmax of metabolite is 5.8 (1.7) ng/mL and the tmax of metabolite is reported as 1.0 (1.0–2.0) hour. Also, in series [1] (setting [4]), the AUC0-t of metabolite was 59.2 (30.6) ng hour/mL, the Cmax of metabolite is on record as 8.09 (30.7) ng/mL, the t1/2 of metabolite is listed as 9.78 (67.1) hour and the tmax of metabolite is reported as 2.0 (1.0–3.0) hour. Moreover, in series [1] (setting [5]), the AUC0-t of metabolite is reported as 206 (40.7) ng hour/mL, the “AUC0-∞ of metabolite” value was 271 (35.6) ng hour/mL, the Cmax of metabolite is 19.6 (29.1) ng/mL and the t1/2 of metabolite is recorded as 9.20 (15.2) hour. Further, the tmax of metabolite in series [1] (setting [5]) is given as 2.0 (1.0–3.0) hour. Moreover, in series [1] (setting [6]), the “plasma abundance of metabolite” value was “undetectable”. Moreover, in series [1] (single dose levels below 40 mg), the “plasma abundance of metabolite” value is “undetectable”.

As to `O=C(Nc1cnccc1Cl)N1CCN(Cc2ccc3c(c2)OC(F)(F)O3)CC1` [JNJ-42165279], in series [2], the half-life was 8 to 14 h. Also, on FAAH, the “duration of FAAH inhibition” value is > 24 h and the “tested dose as multiple of the dose required for complete FAAH inhibition” value is given as “at least 10 times”.

In the case of `O=C(Nc1cccnn1)N1CCC(=Cc2cccc(Oc3ccc(C(F)(F)F)cn3)c2)CC1` [PF-04457845], the “tested dose as multiple of the dose required for complete FAAH inhibition” value at FAAH was 133 times. Further, the FAAH inhibition entry at FAAH (for 6 days or more) is on record as “more than 90%”.

Values taken from paper PMC9292215 (Clinical Pharmacology and Therapeutics, 2021).
